According to patent US6867192B1, “Compounds useful in the treatment of inflammatory diseases” (priority 1998, dated 2005):
Read-outs that look alike come from different tables or passages of the source.

How the values were obtained:
[1] = biological target: T1, integrin VLA-4, expressed on the Jurkat J6 (human lymphoblast cell line) cell membrane with VCAM-1 (Homo sapiens, UniProt P05556+P13612); test: Jurkat J6/VCAM-1 adhesion assay; type: cell-based; conditions: Jurkat J6 cell adhesion to VCAM-1, 1 mM MnCl2; mean of n experiments
T1 construct: integrin VLA-4, expressed on the Jurkat J6 (human lymphoblast cell line) cell membrane; endogenous in cells; host or cells: Jurkat J6 cells (integrin). zzVCAM-1 was made in house in Drosophila melanogaster S2 cells
T1 sequence (P13612 34-1032): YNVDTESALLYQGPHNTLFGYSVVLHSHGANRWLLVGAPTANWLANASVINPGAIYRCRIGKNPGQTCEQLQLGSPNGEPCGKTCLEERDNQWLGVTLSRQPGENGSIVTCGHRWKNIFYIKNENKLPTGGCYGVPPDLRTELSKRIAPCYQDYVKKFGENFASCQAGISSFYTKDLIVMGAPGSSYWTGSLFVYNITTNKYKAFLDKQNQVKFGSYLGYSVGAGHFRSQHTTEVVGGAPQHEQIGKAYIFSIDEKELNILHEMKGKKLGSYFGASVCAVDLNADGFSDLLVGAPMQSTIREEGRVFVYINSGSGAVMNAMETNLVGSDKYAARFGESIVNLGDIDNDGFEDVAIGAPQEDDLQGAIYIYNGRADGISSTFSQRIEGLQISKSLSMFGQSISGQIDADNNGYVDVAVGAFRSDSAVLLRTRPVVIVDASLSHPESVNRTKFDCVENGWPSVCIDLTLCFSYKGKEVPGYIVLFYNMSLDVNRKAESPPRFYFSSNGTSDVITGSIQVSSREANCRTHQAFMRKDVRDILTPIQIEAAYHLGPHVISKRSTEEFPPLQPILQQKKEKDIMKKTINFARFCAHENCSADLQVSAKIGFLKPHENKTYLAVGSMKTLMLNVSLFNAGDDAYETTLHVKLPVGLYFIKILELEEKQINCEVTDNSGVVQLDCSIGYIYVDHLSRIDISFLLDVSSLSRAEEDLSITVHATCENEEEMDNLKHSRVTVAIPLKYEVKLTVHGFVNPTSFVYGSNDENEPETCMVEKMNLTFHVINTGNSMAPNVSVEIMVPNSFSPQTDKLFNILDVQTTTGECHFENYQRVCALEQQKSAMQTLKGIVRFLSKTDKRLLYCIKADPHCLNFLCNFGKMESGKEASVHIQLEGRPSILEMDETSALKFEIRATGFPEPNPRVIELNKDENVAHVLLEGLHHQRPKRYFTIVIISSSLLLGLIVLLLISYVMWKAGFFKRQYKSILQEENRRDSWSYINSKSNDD
T1 sequence (P05556 21-798): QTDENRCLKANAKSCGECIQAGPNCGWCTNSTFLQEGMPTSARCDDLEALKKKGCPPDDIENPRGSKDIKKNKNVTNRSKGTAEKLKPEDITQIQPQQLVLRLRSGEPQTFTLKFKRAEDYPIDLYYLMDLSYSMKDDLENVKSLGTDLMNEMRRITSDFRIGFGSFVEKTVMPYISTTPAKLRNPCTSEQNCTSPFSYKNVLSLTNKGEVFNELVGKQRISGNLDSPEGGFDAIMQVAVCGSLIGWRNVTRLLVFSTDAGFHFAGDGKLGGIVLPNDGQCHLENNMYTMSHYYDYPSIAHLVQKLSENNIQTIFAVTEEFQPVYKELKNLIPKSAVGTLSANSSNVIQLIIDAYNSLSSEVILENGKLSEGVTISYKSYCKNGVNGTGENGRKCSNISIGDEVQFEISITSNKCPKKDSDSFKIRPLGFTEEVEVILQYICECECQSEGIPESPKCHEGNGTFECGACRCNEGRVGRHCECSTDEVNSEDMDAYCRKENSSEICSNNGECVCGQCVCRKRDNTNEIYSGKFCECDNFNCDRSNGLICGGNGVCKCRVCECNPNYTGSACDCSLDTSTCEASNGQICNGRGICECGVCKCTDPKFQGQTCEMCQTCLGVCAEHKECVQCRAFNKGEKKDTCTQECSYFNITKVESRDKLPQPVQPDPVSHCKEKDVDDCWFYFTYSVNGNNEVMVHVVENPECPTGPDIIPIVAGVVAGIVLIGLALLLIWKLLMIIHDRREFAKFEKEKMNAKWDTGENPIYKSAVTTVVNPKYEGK
Method in brief: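 Jurkat J6 cells loaded with BCECF-AM were added with compound in HBSS with 1 mM MnCl2 to plates coated with IgG-captured zzVCAM-1 (seven-domain, S2-expressed) and left to adhere for 30 min at 37 °C. After washing, fluorescence was read. pIC50 came from a four-parameter fit between no compound and 2 mM EDTA.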

[2] = tested on: ovalbumin sensitised guinea pigs; test: Inhibition of eosinophil infiltration and hyper-reactivity in the guinea pig; type: in vivo; conditions: Cavia porcellus, Eosinophil, inhaled or nasal, 24 h, 0.5 hours before and 6 hours after antigen challenge; for inhibition in vivo at 0.002 mg/kg: intratracheal dose 2 μg/kg body weight; for inhibition in vivo at 0.0002 mg/kg: intratracheal dose 0.2 μg/kg body weight
Procedure: (3) Inhibition of Eosinophil Infiltration and Hyper-Reactivity in the Guinea Pig
In a method based on that described by Danahay et al., 1997, ovalbumin sensitised guinea pigs were dosed with mepyramine (30 mg kg^−1 ip) to protect against anaphylactic bronchospasm. Test compounds, dissolved in 0.9% saline, were given by the inhaled route (30 minutes breathing of an aerosol of the compound) or the intra-tracheal route, 30 minutes before and 6 hours after ovalbumin challenge (10 minutes breathing of an aerosol generated from a 0.5% solution of ovalbumin). Hyper-reactivity of the airways to the thromboxane mimetic U46619, was measured 24 hours after ovalbumin challenge in un-restrained animals using a whole body plethysmograph (Buxco Ltd., USA). The guinea pigs were then sacrificed and the lungs lavaged. Total and differential leukocyte counts were then obtained for the bronchoalveolar lavage fluid and the percentage reduction in eosinophil accumulation determined (Sanjar et al., 1992). Dexamethasone (200 μg kg^−1 i.t) was used as a positive control. Data was presented as the inhibitory effect of the specified dose expressed as a percentage of the vehicle control response.

[3] = tested on: CD4+ T-cells; test: CD3/VCAM-1 co-stimulation of T-lymphocyte proliferation; type: cell-based; conditions: T-cell; [3H] thymidine incorporation, 4 days incubation, anti-CD3/zzVCAM-1 coated plates
Procedure: (2) CD3/VCAM-1 Co-stimulation of T-Lymphocyte Proliferation
CD4^+ T-cells were purified from peripheral blood mononuclear cells by negative selection with anti-CD14, CD19, CD16 and HLA.DR antibodies and Dynal beads. Flat bottomed 96-well tissue culture plates were coated with 1 μg ml^−1 anti-CD3 antibody (OKT3), washed and incubated with human IgG and zzVCAM-1 fusion proteins. The CD4^+ T cells (prepared in RPMI-1640 medium supplemented with 10% FCS, penicillin or streptomycin and L-glutamine) were added to the coated plates (1×10^5 cells well^−1) and incubated in the presence or absence of various doses of compound or blocking antibodies for 4 days. Radiolabelled thymidine [^3H] was added for the final 6 hours of incubation and the cells were then harvested using a Skatron plate harvester. Incorporation of the [^3H] label was measured as an indicator of T cell proliferation using a β plate counter. Compounds were assayed in triplicate and data was collected in an analogous procedure to that described for Assay (1).

[4] = airway hyper-reactivity to U46619, read-out: % Inhibition Hyper-reactivity
[5] = read-out: % Inhibition Eosinophil Accumulation

CC(C)C[C@H](NC(=O)COc1ccccc1I)C(=O)N[C@@H](Cc1ccc(OC(=O)N2CCOCC2)cc1)C(=O)O [Example 23, (2S)-2-[((2S)-2-{[2-(2-Iodophenoxy)acetyl]amino}-4-methylpentanoyl)amino]-3-{4-[(4-morpholinylcarbonyl)oxy]phenyl}propanoic acid]
IC50 [1]: 4.47 nM
inhibition in vivo at 0.002 mg/kg [2, 4]: 79%
inhibition in vivo at 0.002 mg/kg [2, 5]: 51%
IC50 [3]: 126 nM

CC(C)C[C@H](NC(=O)c1cccc2c1oc1ccccc12)C(=O)N[C@@H](Cc1ccc(OC(=O)N2CCC(C(N)=O)CC2)cc1)C(=O)O [Example 28, (2S)-3-[4-({[4-(Aminocarbonyl)-1-piperidinyl]carbonyl}oxy)phenyl]-2-({(2S)-2-[(dibenzo[b,d]furan-4-ylcarbonyl)amino]-4-methylpentanoyl}amino)propanoic acid]
IC50 [1]: 3.47 nM
inhibition in vivo at 0.0002 mg/kg [2, 4]: 70%
inhibition in vivo at 0.0002 mg/kg [2, 5]: 3%
inhibition in vivo at 0.002 mg/kg [2, 4]: 47%
inhibition in vivo at 0.002 mg/kg [2, 5]: 62%
IC50 [3]: 158 nM

CC(=O)N1CCN(C(=O)Oc2ccc(C[C@H](NC(=O)[C@H](CC(C)C)NC(=O)COc3ccccc3C)C(=O)O)cc2)CC1 [Example 17, (2S)-3-(4-{[(4-Acetyl-1-piperazinyl)carbonyl]oxy}phenyl)-2-[((2S)-4-methyl-2-{[2-(2-methylphenoxy)acetyl]amino}pentanoyl)amino]propanoic acid]
IC50 [1]: 2.57 nM
inhibition in vivo at 0.0002 mg/kg [2, 4]: 58%
inhibition in vivo at 0.0002 mg/kg [2, 5]: 68%
inhibition in vivo at 0.002 mg/kg [2, 4]: 88%
inhibition in vivo at 0.002 mg/kg [2, 5]: 61%
IC50 [3]: 31.6 nM

CC(=O)N1CCN(C(=O)Oc2ccc(C[C@H](NC(=O)[C@H](CC(C)C)NC(=O)COc3ccccc3C(C)(C)C)C(=O)O)cc2)CC1 [Example 16, (2S)-3-(4-{[(4-Acetyl-1-piperazinyl)carbonyl]oxy}phenyl)-2-{[(2S)-2-({2-[2-(tert-butyl)phenoxy]acetyl}amino)-4-methylpentanoyl]amino}propanoic acid]
IC50 [1]: 3.24 nM
inhibition in vivo at 0.0002 mg/kg [2, 4]: 80%
inhibition in vivo at 0.0002 mg/kg [2, 5]: 62%
inhibition in vivo at 0.002 mg/kg [2, 4]: 95%
inhibition in vivo at 0.002 mg/kg [2, 5]: 78%
IC50 [3]: 39.8 nM

Cc1ccccc1OCC(=O)N[C@@H](CC(C)C)C(=O)N[C@@H](Cc1ccc(OC(=O)N2CCC(C(N)=O)CC2)cc1)C(=O)O [Example 27, (2S)-3-[4-({[4-(Aminocarbonyl)-1-piperidinyl]carbonyl}oxy)phenyl]-2-[((2S)-4-methyl-2-{[2-(2-methylphenoxy)acetyl]amino}pentanoyl)amino]propanoic acid]
IC50 [1]: 2.82 nM
inhibition in vivo at 0.0002 mg/kg [2, 4]: 88%
inhibition in vivo at 0.0002 mg/kg [2, 5]: 58%
inhibition in vivo at 0.002 mg/kg [2, 4]: 87%
inhibition in vivo at 0.002 mg/kg [2, 5]: 90%
IC50 [3]: 31.6 nM

CC(C)C[C@H](NC(=O)COc1ccccc1C(C)(C)C)C(=O)N[C@@H](Cc1ccc(OC(=O)N2CCOCC2)cc1)C(=O)O [Example 24, (2S)-2-{[(2S)-2-({2-[2-(Tert-butyl)phenoxy]acetyl}amino)-4-methylpentanoyl]amino}-3-{4-[(4-morpholinylcarbonyl)oxy]phenyl}propanoic acid]
IC50 [1]: 6.03 nM
inhibition in vivo at 0.0002 mg/kg [2, 4]: 44%
inhibition in vivo at 0.0002 mg/kg [2, 5]: 26%
inhibition in vivo at 0.002 mg/kg [2, 4]: 85%
inhibition in vivo at 0.002 mg/kg [2, 5]: 77%
IC50 [3]: 79.4 nM

CC(C)C[C@H](NC(=O)COc1ccccc1C(C)(C)C)C(=O)N[C@@H](Cc1ccc(OC(=O)N2CCN(C(=O)c3ccccc3)CC2)cc1)C(=O)O [Example 20, (2S)-3-(4-{[(4-Benzoyl-1-piperazinyl)carbonyl]oxy}phenyl)-2-{[(2S)-2-({2-[2-(tert-butyl)phenoxy]acetyl}amino)-4-methylpentanoyl]amino}propanoic acid]
IC50 [1]: 14.8 nM
inhibition in vivo at 0.0002 mg/kg [2, 4]: 85%
inhibition in vivo at 0.0002 mg/kg [2, 5]: 67%
inhibition in vivo at 0.002 mg/kg [2, 4]: 100%
inhibition in vivo at 0.002 mg/kg [2, 5]: 79%
IC50 [3]: 126 nM

Cc1ccccc1OCC(=O)N[C@@H](CC(C)C)C(=O)N[C@@H](Cc1ccc(OC(=O)N2CCN(C(=O)c3ccccc3)CC2)cc1)C(=O)O [Example 21, (2S)-3-(4-{[(4-Benzoyl-1-piperazinyl)carbonyl]oxy}phenyl)-2-[((2S)-4-methyl-2-{[2-(2-methylphenoxy)acetyl]amino}pentanoyl)amino]propanoic acid]
IC50 [1]: 3.89 nM
inhibition in vivo at 0.0002 mg/kg [2, 4]: 82%
inhibition in vivo at 0.0002 mg/kg [2, 5]: 49%
inhibition in vivo at 0.002 mg/kg [2, 4]: 85%
inhibition in vivo at 0.002 mg/kg [2, 5]: 79%
IC50 [3]: 126 nM
